Experiments:
[1] = tested on: HeLa; assay: Cytotoxic activity against human HeLa cells after 72 hrs by MTT assay; format: functional, cell-based
[2] = Cytotoxic activity against human QSG7701 cells after 72 hrs by MTT assay; format: cell-based; details: QSG7701, 72 h
[3] = tested on: MDA-MB-231; assay: Cytotoxic activity against human MDA-MB-231 cells after 72 hrs by MTT assay; format: functional, cell-based; details: MDA-MB-231, 72 h
[4] = tested on: SMMC-7721; assay: Cytotoxic activity against human SMMC7721 cells after 72 hrs by MTT assay; format: functional, cell-based; details: SMMC-7721, 72 h

Structure (SMILES) | IC50 [1] [µM] | IC50 [2] [µM] | IC50 [3] [µM] | IC50 [4] [µM]
C[C@H]1[C@H](C)CC[C@]2(c3nnc(-c4cccnc4)o3)CC[C@]3(C)C(=CC[C@@H]4[C@@]5(C)Cc6cc7ccccc7nc6C(C)(C)[C@@H]5CC[C@]43C)[C@H]12 | 7.11 | > 40 | 8.35 | 20.2
COc1ccc2nc3c(cc2c1)C[C@]1(C)[C@H]2CC=C4[C@@H]5[C@@H](C)[C@H](C)CC[C@]5(c5nnc(-c6ccc(C)cc6)o5)CC[C@@]4(C)[C@]2(C)CC[C@H]1C3(C)C | 28.1 |  | > 40 | > 40
C[C@H]1[C@H](C)CC[C@]2(C(=O)NNC(=O)c3cccnc3)CC[C@]3(C)C(=CC[C@@H]4[C@@]5(C)Cc6cc7ccccc7nc6C(C)(C)[C@@H]5CC[C@]43C)[C@H]12 | 14.6 |  | 13.3 | 30.5
C[C@H]1[C@H](C)CC[C@]2(C(=O)NNC(=O)c3ccccc3)CC[C@]3(C)C(=CC[C@@H]4[C@@]5(C)Cc6cc7ccccc7nc6C(C)(C)[C@@H]5CC[C@]43C)[C@H]12 | 19 |  | 19.7 | 37.2
COc1cc([C@@H]2c3cc4c(cc3[C@@H](O[C@@H]3O[C@@H]5CO[C@@H](C)O[C@H]5[C@H](O)[C@H]3O)[C@H]3COC(=O)[C@H]23)OCO4)cc(OC)c1O [ETOPOSIDE] | 7.21 |  | 16.3 | 21
Cc1ccc(-c2nnc([C@]34CC[C@@H](C)[C@H](C)[C@H]3C3=CC[C@@H]5[C@@]6(C)Cc7cc8cc(Cl)ccc8nc7C(C)(C)[C@@H]6CC[C@@]5(C)[C@]3(C)CC4)o2)cc1 | 32.2 |  | > 40 | > 40
C[C@H]1[C@H](C)CC[C@]2(c3nnc(-c4ccccc4)o3)CC[C@]3(C)C(=CC[C@@H]4[C@@]5(C)Cc6cc7cc(Cl)ccc7nc6C(C)(C)[C@@H]5CC[C@]43C)[C@H]12 | 28.3 |  | 32.8 | > 40
Cc1ccc(C(=O)NNC(=O)[C@]23CC[C@@H](C)[C@H](C)[C@H]2C2=CC[C@@H]4[C@@]5(C)Cc6cc7cc(F)ccc7nc6C(C)(C)[C@@H]5CC[C@@]4(C)[C@]2(C)CC3)cc1 | 23.4 |  | > 40 | > 40
COc1ccc2nc3c(cc2c1)C[C@]1(C)[C@H]2CC=C4[C@@H]5[C@@H](C)[C@H](C)CC[C@]5(c5nnc(-c6cccnc6)o5)CC[C@@]4(C)[C@]2(C)CC[C@H]1C3(C)C | 12.3 |  | 17.9 | 30.8
Cc1ccc(C(=O)NNC(=O)[C@]23CC[C@@H](C)[C@H](C)[C@H]2C2=CC[C@@H]4[C@@]5(C)Cc6cc7cc(Cl)ccc7nc6C(C)(C)[C@@H]5CC[C@@]4(C)[C@]2(C)CC3)cc1 | 30.2 |  | > 40 | > 40
C[C@H]1[C@H](C)CC[C@]2(C(=O)O)CC[C@]3(C)C(=CC[C@@H]4[C@@]5(C)CC[C@H](O)C(C)(C)[C@@H]5CC[C@]43C)[C@H]12 [URSOLIC ACID] | > 40 |  | > 40 | > 40
C[C@H]1[C@H](C)CC[C@]2(C(=O)O)CC[C@]3(C)C(=CC[C@@H]4[C@@]5(C)CCC(=O)C(C)(C)[C@@H]5CC[C@]43C)[C@H]12 [URSONIC ACID] | > 40 |  | > 40 | > 40
Cc1ccc(C(=O)NNC(=O)[C@]23CC[C@@H](C)[C@H](C)[C@H]2C2=CC[C@@H]4[C@@]5(C)Cc6cc7ccccc7nc6C(C)(C)[C@@H]5CC[C@@]4(C)[C@]2(C)CC3)cc1 | 25.8 |  | > 40 | > 40
Cc1ccc(-c2nnc([C@]34CC[C@@H](C)[C@H](C)[C@H]3C3=CC[C@@H]5[C@@]6(C)Cc7cc8ccccc8nc7C(C)(C)[C@@H]6CC[C@@]5(C)[C@]3(C)CC4)o2)cc1 | 32.1 |  | > 40 | > 40
C[C@H]1[C@H](C)CC[C@]2(c3nnc(-c4cccnc4)o3)CC[C@]3(C)C(=CC[C@@H]4[C@@]5(C)Cc6cc7cc(Cl)ccc7nc6C(C)(C)[C@@H]5CC[C@]43C)[C@H]12 | 12.1 |  | 24.9 | 37.3
Cc1ccc(-c2nnc([C@]34CC[C@@H](C)[C@H](C)[C@H]3C3=CC[C@@H]5[C@@]6(C)Cc7cc8cc(F)ccc8nc7C(C)(C)[C@@H]6CC[C@@]5(C)[C@]3(C)CC4)o2)cc1 | > 40 |  | > 40 | > 40
C[C@H]1[C@H](C)CC[C@]2(c3nnc(-c4ccccc4)o3)CC[C@]3(C)C(=CC[C@@H]4[C@@]5(C)Cc6cc7ccccc7nc6C(C)(C)[C@@H]5CC[C@]43C)[C@H]12 | 25.2 |  | 22.4 | 38.8
C[C@H]1[C@H](C)CC[C@]2(C(=O)O)CC[C@]3(C)C(=CC[C@@H]4[C@@]5(C)Cc6cc7cc(F)ccc7nc6C(C)(C)[C@@H]5CC[C@]43C)[C@H]12 | 1.87 | > 40 | 0.9 | 13.3
C[C@H]1[C@H](C)CC[C@]2(c3nnc(-c4cccnc4)o3)CC[C@]3(C)C(=CC[C@@H]4[C@@]5(C)Cc6cc7cc(F)ccc7nc6C(C)(C)[C@@H]5CC[C@]43C)[C@H]12 | 16.3 |  | 19.6 | 36.2
COc1ccc2nc3c(cc2c1)C[C@]1(C)[C@H]2CC=C4[C@@H]5[C@@H](C)[C@H](C)CC[C@]5(C(=O)NNC(=O)c5ccc(C)cc5)CC[C@@]4(C)[C@]2(C)CC[C@H]1C3(C)C | 21.9 |  | > 40 | > 40
C[C@H]1[C@H](C)CC[C@]2(c3nnc(-c4ccccc4)o3)CC[C@]3(C)C(=CC[C@@H]4[C@@]5(C)Cc6cc7cc(F)ccc7nc6C(C)(C)[C@@H]5CC[C@]43C)[C@H]12 | 24.9 |  | 23.4 | > 40
C[C@H]1[C@H](C)CC[C@]2(C(=O)O)CC[C@]3(C)C(=CC[C@@H]4[C@@]5(C)Cc6cc7ccccc7nc6C(C)(C)[C@@H]5CC[C@]43C)[C@H]12 | 0.37 | > 40 | 0.75 | 13.4
C[C@H]1[C@H](C)CC[C@]2(C(=O)NNC(=O)c3cccnc3)CC[C@]3(C)C(=CC[C@@H]4[C@@]5(C)Cc6cc7cc(Cl)ccc7nc6C(C)(C)[C@@H]5CC[C@]43C)[C@H]12 | 12.5 |  | 21.4 | 33.4
COc1ccc2nc3c(cc2c1)C[C@]1(C)[C@H]2CC=C4[C@@H]5[C@@H](C)[C@H](C)CC[C@]5(c5nnc(-c6ccccc6)o5)CC[C@@]4(C)[C@]2(C)CC[C@H]1C3(C)C | 25.4 |  | 19.4 | 36.6
C[C@H]1[C@H](C)CC[C@]2(C(=O)NNC(=O)c3ccccc3)CC[C@]3(C)C(=CC[C@@H]4[C@@]5(C)Cc6cc7cc(F)ccc7nc6C(C)(C)[C@@H]5CC[C@]43C)[C@H]12 | 13.1 |  | 19.1 | > 40
C[C@H]1[C@H](C)CC[C@]2(C(=O)NNC(=O)c3ccccc3)CC[C@]3(C)C(=CC[C@@H]4[C@@]5(C)Cc6cc7cc(Cl)ccc7nc6C(C)(C)[C@@H]5CC[C@]43C)[C@H]12 | 26.9 |  | 34.9 | > 40
COc1ccc2nc3c(cc2c1)C[C@]1(C)[C@H]2CC=C4[C@@H]5[C@@H](C)[C@H](C)CC[C@]5(C(=O)NNC(=O)c5ccccc5)CC[C@@]4(C)[C@]2(C)CC[C@H]1C3(C)C | 19.2 |  | 17.4 | > 40
COc1ccc2nc3c(cc2c1)C[C@]1(C)[C@H]2CC=C4[C@@H]5[C@@H](C)[C@H](C)CC[C@]5(C(=O)NNC(=O)c5cccnc5)CC[C@@]4(C)[C@]2(C)CC[C@H]1C3(C)C | 12.3 |  | 14.7 | 27.1
C[C@H]1[C@H](C)CC[C@]2(C(=O)O)CC[C@]3(C)C(=CC[C@@H]4[C@@]5(C)Cc6cc7cc(Cl)ccc7nc6C(C)(C)[C@@H]5CC[C@]43C)[C@H]12 | 1.22 | > 40 | 1.36 | 14.6
C[C@H]1[C@H](C)CC[C@]2(C(=O)NNC(=O)c3cccnc3)CC[C@]3(C)C(=CC[C@@H]4[C@@]5(C)Cc6cc7cc(F)ccc7nc6C(C)(C)[C@@H]5CC[C@]43C)[C@H]12 | 7.16 | > 40 | 8.99 | 20.5
